Experimental data taken from ChEMBL document CHEMBL1151211, “Isolation, structure, absolute stereochemistry, and HIV-1 integrase inhibitory activity of integrasone, a novel fungal polyketide” (J Nat Prod, 2004).

Target: Human immunodeficiency virus type 1 integrase (Human immunodeficiency virus 1, UniProt Q7ZJM1)
Test: Inhibition of HIV1 integrase strand transfer activity

Sequence of Human immunodeficiency virus type 1 integrase (Q7ZJM1 whole entry): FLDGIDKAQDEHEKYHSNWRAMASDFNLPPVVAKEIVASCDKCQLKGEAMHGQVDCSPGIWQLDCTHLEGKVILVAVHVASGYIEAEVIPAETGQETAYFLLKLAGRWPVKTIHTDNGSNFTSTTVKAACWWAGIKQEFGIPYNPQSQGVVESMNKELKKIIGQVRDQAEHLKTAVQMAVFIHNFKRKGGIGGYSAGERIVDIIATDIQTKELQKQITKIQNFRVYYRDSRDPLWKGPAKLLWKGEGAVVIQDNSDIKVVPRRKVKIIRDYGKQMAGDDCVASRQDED

- IC50: 41 µM
SMILES: CCCCCC[C@H]1OC(=O)C2=C1[C@@H](O)[C@@H]1O[C@@H]1[C@@H]2O [INTEGRASONE]
